{
  "source": "ChEMBL document CHEMBL1123013",
  "about": "“Synthesis and neuroleptic activity of 3-(1-substituted-4-piperidinyl)-1,2-benzisoxazoles” (J Med Chem, 1985)",
  "data": [
    {"organism": "Mus musculus", "experiment": "animal or person", "conditions": "ip", "units": {"ED50": "mg/kg"}, "description": "Neuroleptic activity in vivo by ability to antagonise climbing in apomorphine dosed mice after intraperitoneal administration.", "values": [
      {"compound": "COc1ccc2c(C3CCN(CCCn4c(O)nc5ccccc54)CC3)noc2c1", "ED50": "> 10"},
      {"compound": "Fc1ccc(C(CCCN2CCC(c3noc4ccccc34)CC2)c2ccc(F)cc2)cc1", "ED50": 1.6},
      {"compound": "Oc1ccc2onc(C3CCN(CCCC(c4ccc(F)cc4)c4ccc(F)cc4)CC3)c2c1", "ED50": "> 10"},
      {"compound": "COc1cc2onc(C3CCN(CCCn4c(O)nc5ccccc54)CC3)c2cc1OC", "ED50": "> 10"},
      {"compound": "Oc1nc2ccccc2n1CCCN1CCC(c2noc3cc(F)ccc23)CC1", "ED50": 0.09},
      {"compound": "Fc1ccc(C(CCCN2CCC(c3noc4ccc(F)cc34)CC2)c2ccc(F)cc2)cc1", "ED50": 1.6},
      {"compound": "COc1cc2onc(C3CCN(CCCc4c(C)[nH]c5ccccc45)CC3)c2cc1OC", "ED50": "> 10"},
      {"compound": "Cc1[nH]c2ccccc2c1CCCN1CCC(c2noc3ccc(O)cc23)CC1", "ED50": "> 10"},
      {"compound": "Oc1nc2ccccc2n1CCCN1CCC(c2noc3cc(Cl)ccc23)CC1", "ED50": 0.8},
      {"compound": "Cc1[nH]c2ccccc2c1CCCN1CCC(c2noc3cc(Cl)ccc23)CC1", "ED50": 4.1},
      {"compound": "Cc1[nH]c2ccccc2c1CCCN1CCC(c2noc3ccccc23)CC1", "ED50": 1.1},
      {"compound": "COc1cc2onc(C3CCN(CCCc4noc5cc(F)ccc45)CC3)c2cc1OC", "ED50": "> 10"},
      {"compound": "Oc1nc2ccccc2n1CCCN1CCC(c2noc3cccc(F)c23)CC1", "ED50": 5.3},
      {"compound": "Fc1ccc2c(CCCN3CCC(c4noc5ccccc45)CC3)noc2c1", "ED50": 1.4},
      {"compound": "Cc1[nH]c2ccccc2c1CCCN1CCC(c2noc3ccc(F)cc23)CC1", "ED50": "> 10"},
      {"compound": "COc1ccc2onc(C3CCN(CCCc4c(C)[nH]c5ccccc45)CC3)c2c1", "ED50": "> 10"},
      {"compound": "Fc1ccc2c(CCCN3CCC(c4noc5cc(F)ccc45)CC3)noc2c1", "ED50": 0.08},
      {"compound": "O=C(c1ccccc1)C1CCNCC1", "ED50": 1.3},
      {"compound": "Oc1nc2ccccc2n1CCCN1CCC(c2noc3ccc(F)cc23)CC1", "ED50": "> 10"},
      {"compound": "Fc1ccc2c(CCCN3CCC(c4noc5cc(Cl)ccc45)CC3)noc2c1", "ED50": 2},
      {"compound": "COc1ccc2onc(C3CCN(CCCC(c4ccc(F)cc4)c4ccc(F)cc4)CC3)c2c1", "ED50": "> 10"},
      {"compound": "COc1ccc2onc(C3CCN(CCCc4noc5cc(F)ccc45)CC3)c2c1", "ED50": 7.2},
      {"compound": "COc1cc2onc(C3CCN(CCCC(c4ccc(F)cc4)c4ccc(F)cc4)CC3)c2cc1OC", "ED50": "> 10"}
    ]},
    {"test_system": "Dopamine receptor", "experiment": "Ability to inhibit the binding of [3H]spiroperidol in rat striatal tissue; ND=assay not performed due to solubility problems.", "type": "tissue-based, Striatum", "conditions": "not given", "values": [
      {"compound": "Oc1nc2ccccc2n1CCCN1CCC(c2noc3ccccc23)CC1", "IC50": "Insoluble"}
    ]}
  ]
}
